Measurements taken from patent US9018242B2, “Salt form of tyrosine kinase inhibitor” (Jiangsu Simcere Pharmaceutical R&D Co., Ltd, priority 2011, dated 2015).

Key:
[1] = Hygroscopicity measurement (weight gain); assay type: physicochemical; conditions: 25±1° C., relative humidity 80±2%, 24 hours
Description: The method for measuring the hygroscopicity may include: placing a certain amount of a sample to be tested into a precisely weighed glass weighing bottle (m1) with a plug and precisely weighing (m2); placing the opened weighing bottle into a thermostatic dryer (with saturated ammonium sulfate solution placed at the bottom, with a relative humidity of 80±2%) at 25±1° C. for 24 hours; covering the weighing bottle with the plug and precisely weighing (m3), and calculating the percent of weight gain of the sample to be tested according to the following equation: […]
The measurement method includes: placing a certain amount of sample to be tested into a precisely weighed glass weighing bottle (m1) with a plug and precisely weighing (m2); placing the opened weighing bottle in a thermostated dryer (with saturated ammonium sulfate solution placed at the bottom, with a relative humidity of 80±2%) at 25±1° C. for 24 hours; covering the weighing bottle with the plug and precisely weighing (m3).
Characterization of the hygroscopicity and definition of the hygroscopic weight gain:
Deliquescence: sufficient moisture was absorbed to form liquid;
Slight hygroscopicity: hygroscopic weight gain was less than 2% and not less than 0.2%: […]

[2] = Solubility in water by HPLC; assay type: physicochemical; conditions: thermodynamic from solid; purified water, 25° C.
Description: Liquid chromatograph: Agilent 1200 HPLC system (diode array detector), ChemStation
Mobile phase: acetonitrile/water
Detection wavelength: 264 nm
About 100 mg sample to be tested was precisely weighed and placed into a 100 ml graduated flask at 25° C.; an appropriate amount of solvent [acetonitrile/water (80:20)] was added to dissolve the sample under ultrasonic sound, and the solution was diluted to a given scale and shaken up; 10 μl resulting solution was precisely measured and loaded into the liquid chromatograph, the chromatogram was recorded, and the peak area Scontrol was measured.
10 ml purified water was measured and placed into a 25 ml Kjeldahl flask. The sample to be tested was gradually added at 25° C. until an insoluble solid appeared in the solution. The solution was treated under ultrasonic sound for 30 min and the insoluble solid was filtered off. 10 μl filtrate was precisely weighed and loaded into the liquid chromatograph, the chromatogram was recorded, and the peak area Stest was measured.

[3] = Plasma exposure (AUC) in rats after gavage administration; assay type: in vivo; conditions: rat, po, male SD rats, 10 mg/kg (based on pharmaceutically active compound), salts dissolved in pure water, active compound as suspension in 0.5% CMC, up to 24 h
Description: Laboratory animal: male SD rats
Dosage: 10 mg/kg (based on pharmaceutically active compound)
Formulation for salts: dissolving in pure water
(§1) Formulation for pharmaceutically active compound: suspension in CMC (carboxymethylcellulose), 0.5%
Animal Grouping and Testing Course:
Each group includes three male rats having a weight of 180 to 210 g. Gavage administration was performed; the blood was collected at point of time: 5 min, 15 min, 30 min, 45 min, 1 h, 2 h, 4 h, 6 h, 10 h and 24 h; about 250 μl blood was collected from orbital venous plexus into a heparin-containing tube, centrifuged, and 100 μl plasma was used for LC-MS analysis.

[4] = tested on: human colon cancer HT-29 xenografts; assay: Therapeutic effect on human colon cancer HT-29 xenografts in nude mice; assay type: in vivo, BALB/cA-nude mice; conditions: 40 mg/kg (based on pharmaceutically active compound), gavage for 21 days, L-malate in pure water, active compound as suspension in 0.5% CMC
Description: Laboratory animal: BALB/cA-nude mice, 6-7 weeks, ♀
Dosage: 40 mg/kg (based on pharmaceutically active compound)
Formulation for L-malate: dissolving in pure water
as §1
Nude mice were subcutaneously inoculated with human colon cancer HT-29 cells. After the tumor grew to a size of 150 to 250 mm^3, the animals were randomly divided into three groups (d0). The animals were continuously administered through gavage for 21 days, and the tumor volume was measured 2 to 3 times per week. The tumor volume (V) was calculated according to the equation: V=1/2×a×b^2, where a and b represent length and width respectively.
The relative proliferation of tumor=T/C(%)=(T−T0)/(C−C0)×100, where T and C are the tumor volumes at the end of experiment, T0 and C0 are the tumor volumes at the start of experiment; the tumor inhibition rate=1−T/C(%).

Structure (SMILES): CCN(CC)CCNC(=O)c1c(C)[nH]c2c1CCC/C2=C1/C(=O)Nc2ccc(F)cc21.O=C(O)C[C@H](O)C(=O)O [L-malate, (Z)—N-[2-(diethylamino)ethyl]-2-methyl-7-(1,2-dihydro-5-fluoro-2-oxo-3H-indol-3-ylidene)-4,5,6,7-tetrahydro-1H-indol-3-carboxamide L-malate]
- Hygroscopicity [1]: Almost no hygroscopicity
- solubility at 30 min [2]: 38.6 mg/mL
- AUC(0-t) [3]: 1490 ng·h/mL
- Tumor Inhibition Rate [4]: 54%
